Measured values as given in patent publication US4234583A, “2-Chloro-4-(4-lower alkyl-1-piperazinyl)benzenemethanol, N^ω -oxides and methods for their preparation” (priority 1978, dated 1980).
Where “and” joins values, the source holds several entries; their conditions need not be identical. Equal values may be shown once.

Experiments:
[1] = test system: Mature S. mansoni, Liberian strain; experiment: Primary screen in mice, single oral doses, mature S. mansoni infection (Liberian strain); assay type: in vivo
Text: (§1) The compounds of the invention are useful in the treatment of schistosomiasis. Compounds of this invention, when placed in the primary screen in mice described in Am. J. Trop.
(§2) Effects of Single Oral Doses (Aqueous Solutions ) of 2-Chloro-
(§3) 4-(4-alkyl-1-piperazinyl)benzenemethanol, N^ω -oxides Against
(§4) Mature S. mansoni Infections in Mice

[2] = test system: Mature S. mansoni, St. Lucian strain; experiment: Primary screen in mice, single oral doses, mature S. mansoni infection (St. Lucian strain); assay type: in vivo
Text: as §1, §2, §3, §4

[3] = test system: Mature S. mansoni, Brazilian strain; experiment: Primary screen in mice, single oral doses, mature S. mansoni infection (Brazilian strain); assay type: in vivo
Text: as §1, §2, §3, §4

[4] = test system: Mature S. mansoni (Puerto Rican/Walter Reed Strain); experiment: Secondary test in monkeys, mature S. mansoni infection; assay type: in vivo; details: monkeys (Cebus apella), 50 × 4 mg/kg
Text: The preferred compound of the invention, when placed in a secondary test in monkeys described in Am. J. Trop. Med. Hyg. 15, 705 (1966) gave the following data:
Effects of 2-chloro-4-(4-methyl-1-piperazinyl)benzenemethanol,
N^ω -oxide Against Mature S. mansoni (Puerto Rican/Walter Reed
Strain) Infections in Monkeys (Cebus apella)

[5] = test system: Mature S. mansoni, Puerto Rican/Walter Reed strain; experiment: Primary screen in mice, single oral doses, mature S. mansoni infection (Puerto Rican/Walter Reed strain); assay type: in vivo
Text: as §1, §2, §3, §4

[6] = test system: Mature S. mansoni, Puerto Rican/Sterling Winthrop strain; experiment: Primary screen in mice, single oral doses, mature S. mansoni infection (Puerto Rican/Sterling Winthrop strain); assay type: in vivo
Text: as §1, §2, §3, §4

[7] = Acute intramuscular toxicity (LD50) in uninfected mice; details: mouse, in vivo, im, read-out: Approximate Acute Intramuscular LD50
Text: Approximate Acute Intramuscular LD50
Values in Uninfected Mice

[8] = test system: Mature S. mansoni, Puerto Rican/Michigan strain; experiment: Primary screen in mice, single oral doses, mature S. mansoni infection (Puerto Rican/Michigan strain); assay type: in vivo
Text: as §1, §2, §3, §4

[9] = test system: Salmonella typhimurium TA-100; assay type: cell-based
Text: The compounds of this invention have the specific advantage over the corresponding des-N-oxide compounds in that the compounds are non-mutagenic in a test designed to determine mutagenicity which is described in J. Pharm. Exp. Therap., 200, 1 (1977).
Mutagenic Activity Using Salmonella typhimurium (TA-98 and TA-100)

C[N+]1([O-])CCN(c2ccc(CO)c(Cl)c2)CC1 [CH3, 2-chloro-4-(4-methyl-1-piperazinyl)benzenemethanol, N^ω -oxide]
% Mice Cured ([1]; single oral dose 50 mg/kg): 0%
% Reduction Live Worms ([1]; single oral dose 50 mg/kg): 25%
% Mice Cured ([2]; single oral dose 150 mg/kg): 0%
% Reduction Live Worms ([2]; single oral dose 150 mg/kg): 16%
% Mice Cured ([3]; single oral dose 20 mg/kg): 0%
% Reduction Live Worms ([3]; single oral dose 20 mg/kg): 73%
% Mice Cured ([3]; single oral dose 40 mg/kg): 51%
% Reduction Live Worms ([3]; single oral dose 40 mg/kg): 88%
Final Egg Count [4]: 0
% Reduction Live Worms ([4]; N^ω -oxide, 4 mg/kg): 92% and 91%
% Mice Cured ([5]; single oral dose 100 mg/kg): 100%
% Reduction Live Worms ([5]; single oral dose 100 mg/kg): 100%
% Mice Cured ([6]; single oral dose 40 mg/kg): 33%
% Reduction Live Worms ([6]; single oral dose 40 mg/kg): 56%
% Mice Cured ([6]; single oral dose 75 mg/kg): 60%
% Reduction Live Worms ([6]; single oral dose 75 mg/kg): 69%
LD50 [7]: 1500 mg/kg
% Mice Cured ([8]; single oral dose 40 mg/kg): 43%
% Reduction Live Worms ([8]; single oral dose 40 mg/kg): 79%
% Mice Cured ([8]; single oral dose 75 mg/kg): 52%
% Reduction Live Worms ([8]; single oral dose 75 mg/kg): 90%
% Mice Cured ([8]; single oral dose 300 mg/kg): 87%
% Reduction Live Worms ([8]; single oral dose 300 mg/kg): 99%

CC[N+]1([O-])CCN(c2ccc(CO)c(Cl)c2)CC1 [C2 H5, 2-chloro-4-(4-ethyl-1-piperazinyl)benzenemethanol, N^ω -oxide]
LD50 [7]: > 250 mg/kg
% Mice Cured ([8]; single oral dose 75 mg/kg): 71%
% Reduction Live Worms ([8]; single oral dose 75 mg/kg): 92%

CN1CCN(c2ccc(CO)c(Cl)c2)CC1 [CH3 des N-oxide, 2-chloro-4-(4-methyl-1-piperazinyl)benzenemethanol, reference compound]
Mutagenic activity, Revertants per n mole [9]: 0.1 Revertants per n mole
LD50 [7]: 200 mg/kg

CC(C)[N+]1([O-])CCN(c2ccc(CO)c(Cl)c2)CC1 [CH(CH3)2, 2-chloro-4-[4-(1-methylethyl)-1-piperazinyl]-benzenemethanol, N^ω -oxide]
% Mice Cured ([1]; single oral dose 75 mg/kg): 0%
% Reduction Live Worms ([1]; single oral dose 75 mg/kg): 42%
% Mice Cured ([1]; single oral dose 125 mg/kg): 100%
% Reduction Live Worms ([1]; single oral dose 125 mg/kg): 100%
% Mice Cured ([2]; single oral dose 40 mg/kg): 0%
% Reduction Live Worms ([2]; single oral dose 40 mg/kg): 50%
% Mice Cured ([2]; single oral dose 75 mg/kg): 57%
% Reduction Live Worms ([2]; single oral dose 75 mg/kg): 75%
% Mice Cured ([3]; single oral dose 40 mg/kg): 0%
% Reduction Live Worms ([3]; single oral dose 40 mg/kg): 32%
Mutagenic activity, Revertants per n mole [9]: 0.007 Revertants per n mole
% Mice Cured ([5]; single oral dose 40 mg/kg): 75%
% Reduction Live Worms ([5]; single oral dose 40 mg/kg): 96%
% Mice Cured ([5]; single oral dose 75 mg/kg): 72%
% Reduction Live Worms ([5]; single oral dose 75 mg/kg): 85%
% Mice Cured ([6]; single oral dose 75 mg/kg): 0%
% Reduction Live Worms ([6]; single oral dose 75 mg/kg): 25%
LD50 [7]: > 1500 mg/kg
% Mice Cured ([8]; single oral dose 40 mg/kg): 19%
% Reduction Live Worms ([8]; single oral dose 40 mg/kg): 57%
% Mice Cured ([8]; single oral dose 75 mg/kg): 100%
% Reduction Live Worms ([8]; single oral dose 75 mg/kg): 100%
% Mice Cured ([8]; single oral dose 125 mg/kg): 57%
% Reduction Live Worms ([8]; single oral dose 125 mg/kg): 90%

CC(C)N1CCN(c2ccc(CO)c(Cl)c2)CC1 [CH(CH3)2 des N-oxide, 2-chloro-4-[4-(1-methylethyl)-1-piperazinyl]benzenemethanol, reference compound]
LD50 [7]: 100 mg/kg

CCN1CCN(c2ccc(CO)c(Cl)c2)CC1 [C2 H5 des N-oxide, 2-chloro-4-(4-ethyl-1-piperazinyl)benzenemethanol, reference compound]
LD50 [7]: 150 mg/kg
